Several values for one entry are separate records, joined by “and”; a condition that tells them apart may be missing. Identical values can stand only once. Like-named read-outs stand apart in the source and are kept apart here.
Tests used:
[1] = system: Amaranthus rudis (AMATA), tall water hemp; experiment: Postemergence herbicide evaluation, growth of Amaranthus rudis (AMATA); assay type: in vivo; settings: Amaranthus tuberculatus, post-emergence, read-out: Ave. AMATA, percent reduction in plant size relative to the untreated control; for pest or weed control at 280 g/ha: 280 g ae/ha; for pest or weed control at 560 g/ha: 560 g ae/ha
[2] = system: Ambrosia artemisiifolia (AMBEL), common ragweed; experiment: Postemergence herbicide evaluation, growth of Ambrosia artemisiifolia (AMBEL); assay type: in vivo; settings: Ambrosia artemisiifolia, post-emergence, read-out: AVE. AMBEL, percent reduction in plant size relative to the untreated control; for pest or weed control at 280 g/ha: 280 g ae/ha; for pest or weed control at 560 g/ha: 560 g ae/ha
[3] = system: Abutilon theophrasti (ABUTH), velvetleaf; experiment: Postemergence herbicide evaluation, growth of Abutilon theophrasti (ABUTH); assay type: in vivo; settings: Abutilon theophrasti, post-emergence, read-out: AVE. ABUTH, percent reduction in plant size relative to the untreated control; for pest or weed control at 280 g/ha: 280 g ae/ha; for pest or weed control at 560 g/ha: 560 g ae/ha
[4] = system: Chenopodium album (CHEAL), common lambsquarters; experiment: Postemergence herbicide evaluation, growth of Chenopodium album (CHEAL); assay type: in vivo; settings: Chenopodium album, post-emergence, read-out: Ave. CHEAL, percent reduction in plant size relative to the untreated control; for pest or weed control at 280 g/ha: 280 g ae/ha; for pest or weed control at 560 g/ha: 560 g ae/ha
[5] = system: glyphosate resistant Conyza canadensis (L.) (ERICA), horseweed; experiment: Postemergence herbicide evaluation, growth of Conyza canadensis (ERICA); assay type: in vivo; settings: Erigeron canadensis, post-emergence, read-out: Ave. ERICA, percent reduction in plant size relative to the untreated control; for pest or weed control at 280 g/ha: 280 g ae/ha; for pest or weed control at 560 g/ha: 560 g ae/ha
[6] = Volatility of compounds measured by thermogravimetric analysis (TGA); assay type: physicochemical
[7] = system: weeds ABUTH, AMATA, AMBEL, CHEAL, ERICA; experiment: Postemergence herbicide evaluation, overall average % weed control (ABUTH, AMATA, AMBEL, CHEAL, ERICA); assay type: in vivo; settings: post-emergence, read-out: Overall Ave % Weed Control; for pest or weed control at 280 g/ha: 280 g ae/ha; for pest or weed control at 560 g/ha: 560 g ae/ha

O=C(COc1ccc(Cl)cc1Cl)O/N=C1\CCCc2ccccc21 [Compound A25]
pest or weed control at 280 g/ha ([1]; 168 h, 7 DAA): 65%
pest or weed control at 560 g/ha ([1]; 168 h, 7 DAA): 57.5%
pest or weed control at 280 g/ha ([1]; 336 h, 14 DAA): 80%
pest or weed control at 560 g/ha ([1]; 336 h, 14 DAA): 82.5%
pest or weed control at 280 g/ha ([1]; 504 h, 21 DAA): 50%
pest or weed control at 560 g/ha ([1]; 504 h, 21 DAA): 64%
pest or weed control at 280 g/ha ([2]; 168 h, 7 DAA): 70%
pest or weed control at 560 g/ha ([2]; 168 h, 7 DAA): 80%
pest or weed control at 280 g/ha ([2]; 336 h, 14 DAA): 62.5%
pest or weed control at 560 g/ha ([2]; 336 h, 14 DAA): 67.5%
pest or weed control at 280 g/ha ([2]; 504 h, 21 DAA): 87.5%
pest or weed control at 560 g/ha ([2]; 504 h, 21 DAA): 82.5%
pest or weed control at 280 g/ha ([3]; 168 h, 7 DAA): 27.5%
pest or weed control at 560 g/ha ([3]; 168 h, 7 DAA): 30%
pest or weed control at 280 g/ha ([3]; 336 h, 14 DAA): 22.5%
pest or weed control at 560 g/ha ([3]; 336 h, 14 DAA): 27.5%
pest or weed control at 280 g/ha ([3]; 504 h, 21 DAA): 17.5%
pest or weed control at 560 g/ha ([3]; 504 h, 21 DAA): 30%
pest or weed control at 280 g/ha ([4]; 168 h, 7 DAA): 72.5%
pest or weed control at 560 g/ha ([4]; 168 h, 7 DAA): 72.5%
pest or weed control at 280 g/ha ([4]; 336 h, 14 DAA): 65%
pest or weed control at 560 g/ha ([4]; 336 h, 14 DAA): 92.5%
pest or weed control at 280 g/ha ([4]; 504 h, 21 DAA): 75%
pest or weed control at 560 g/ha ([4]; 504 h, 21 DAA): 75%
pest or weed control at 280 g/ha ([5]; 168 h, 7 DAA): 60%
pest or weed control at 560 g/ha ([5]; 168 h, 7 DAA): 72.5%
pest or weed control at 280 g/ha ([5]; 336 h, 14 DAA): 83.5%
pest or weed control at 560 g/ha ([5]; 336 h, 14 DAA): 77.5%
pest or weed control at 280 g/ha ([5]; 504 h, 21 DAA): 67.5%
pest or weed control at 560 g/ha ([5]; 504 h, 21 DAA): 99%
TGA Data (rate of weight loss, volatility) [6]: 0.8976 µg/min
pest or weed control at 280 g/ha ([7]; 168 h, 7 DAA): 59%
pest or weed control at 560 g/ha ([7]; 168 h, 7 DAA): 62.5%
pest or weed control at 280 g/ha ([7]; 336 h, 14 DAA): 62.7%
pest or weed control at 560 g/ha ([7]; 336 h, 14 DAA): 69.5%
pest or weed control at 280 g/ha ([7]; 504 h, 21 DAA): 59.5%
pest or weed control at 560 g/ha ([7]; 504 h, 21 DAA): 70.1%

O=C(COc1ccc(Cl)cc1Cl)O/N=C/c1ccccn1 [Compound A32]
pest or weed control at 280 g/ha ([1]; 168 h, 7 DAA): 70%
pest or weed control at 560 g/ha ([1]; 168 h, 7 DAA): 90%
pest or weed control at 280 g/ha ([1]; 336 h, 14 DAA): 96%
pest or weed control at 560 g/ha ([1]; 336 h, 14 DAA): 87.5%
pest or weed control at 280 g/ha ([1]; 504 h, 21 DAA): 60%
pest or weed control at 560 g/ha ([1]; 504 h, 21 DAA): 94%
pest or weed control at 280 g/ha ([2]; 168 h, 7 DAA): 75%
pest or weed control at 560 g/ha ([2]; 168 h, 7 DAA): 75%
pest or weed control at 280 g/ha ([2]; 336 h, 14 DAA): 72.5%
pest or weed control at 560 g/ha ([2]; 336 h, 14 DAA): 92.5%
pest or weed control at 280 g/ha ([2]; 504 h, 21 DAA): 100%
pest or weed control at 560 g/ha ([2]; 504 h, 21 DAA): 100%
pest or weed control at 280 g/ha ([3]; 168 h, 7 DAA): 55%
pest or weed control at 560 g/ha ([3]; 168 h, 7 DAA): 67.5%
pest or weed control at 280 g/ha ([3]; 336 h, 14 DAA): 74%
pest or weed control at 560 g/ha ([3]; 336 h, 14 DAA): 88.5%
pest or weed control at 280 g/ha ([3]; 504 h, 21 DAA): 87.5%
pest or weed control at 560 g/ha ([3]; 504 h, 21 DAA): 98.5%
pest or weed control at 280 g/ha ([4]; 168 h, 7 DAA): 82.5%
pest or weed control at 560 g/ha ([4]; 168 h, 7 DAA): 75%
pest or weed control at 280 g/ha ([4]; 336 h, 14 DAA): 97.5%
pest or weed control at 560 g/ha ([4]; 336 h, 14 DAA): 95%
pest or weed control at 280 g/ha ([4]; 504 h, 21 DAA): 97.5%
pest or weed control at 560 g/ha ([4]; 504 h, 21 DAA): 97.5%
pest or weed control at 280 g/ha ([5]; 168 h, 7 DAA): 87.5%
pest or weed control at 560 g/ha ([5]; 168 h, 7 DAA): 75%
pest or weed control at 280 g/ha ([5]; 336 h, 14 DAA): 97%
pest or weed control at 560 g/ha ([5]; 336 h, 14 DAA): 99.5%
pest or weed control at 280 g/ha ([5]; 504 h, 21 DAA): 99%
pest or weed control at 560 g/ha ([5]; 504 h, 21 DAA): 98%
TGA Data (rate of weight loss, volatility) [6]: 0.809 µg/min and 0.87 µg/min
pest or weed control at 280 g/ha ([7]; 168 h, 7 DAA): 74%
pest or weed control at 560 g/ha ([7]; 168 h, 7 DAA): 76.5%
pest or weed control at 280 g/ha ([7]; 336 h, 14 DAA): 87.4%
pest or weed control at 560 g/ha ([7]; 336 h, 14 DAA): 92.6%
pest or weed control at 280 g/ha ([7]; 504 h, 21 DAA): 88.8%
pest or weed control at 560 g/ha ([7]; 504 h, 21 DAA): 97.6%

— patent US20260042731A1, “(2,4-DICHLOROPHENOXY)ACETIC ACID ANALOGS” (CORTEVA AGRISCIENCE LLC, priority 2022, published 2026)
